In patent US12378224B2 (Dong-A Socio Holdings Co., Ltd., priority 2016, dated 2025):

What follows are compounds tested against human MER (528-end) (Homo sapiens (Human), UniProt Q12866) (assay: HTRF Kinase Activity Biochemical Assay (KinEASE-TK)). Conditions: 10 uM ATP.
Outline: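 Activity read-out is the HTRF ratio (665 nm over 620 nm emission, ×10,000; excitation 340 nm) after 1 h detection with 0.375 nM Eu3+-cryptate anti-TK antibody plus 0.062 uM SA-XL665. Preceding kinase step: human MER (528-end), biotinylated TK substrate, 1 h, room temperature.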

Sequence of human MER (528-end) (Q12866 528-999 limits assumed): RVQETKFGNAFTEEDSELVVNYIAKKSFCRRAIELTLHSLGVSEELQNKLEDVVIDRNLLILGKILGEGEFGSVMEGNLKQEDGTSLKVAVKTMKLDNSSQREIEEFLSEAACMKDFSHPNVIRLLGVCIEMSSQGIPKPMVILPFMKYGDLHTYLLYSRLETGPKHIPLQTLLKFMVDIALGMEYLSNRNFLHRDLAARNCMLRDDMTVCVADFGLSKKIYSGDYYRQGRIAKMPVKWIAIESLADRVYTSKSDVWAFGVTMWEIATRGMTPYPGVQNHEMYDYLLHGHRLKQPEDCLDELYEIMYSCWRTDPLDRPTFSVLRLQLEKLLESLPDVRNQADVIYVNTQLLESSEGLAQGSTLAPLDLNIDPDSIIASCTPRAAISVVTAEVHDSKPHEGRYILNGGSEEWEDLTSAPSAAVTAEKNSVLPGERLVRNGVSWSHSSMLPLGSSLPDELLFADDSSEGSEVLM

Structure (SMILES)	IC50 [nM]
Cn1cc(-c2cnc(N)c(C(=O)N[C@@H]3CCN(C(=O)c4ccc(-c5ccc(Oc6ccccc6)cc5)cc4)C3)c2)cn1 [Example 527, (R)-2-amino-5-(1-methyl-1H-pyrazol-4-yl)-N-(1-(4′-phenoxy-[1,1′-biphenyl]-4-carbonyl)pyrrolidin-3-yl)nicotinamide]	100 to 1000
COc1ccc(Oc2ccc(-c3ccc(C(=O)N4CC[C@@H](NC(=O)c5cc(-c6cnn(C)c6)cnc5N)C4)cc3)cc2)cc1 [Example 528, (R)-2-amino-N-(1-(4′-(4-methoxyphenoxy)-[1,1′-biphenyl]-4-carbonyl)pyrrolidin-3-yl)-5-(1-methyl-1H-pyrazol-4-yl)nicotinamide]	> 1000
Cc1ccc(-c2ccc(C(=O)N3CC[C@@H](NC(=O)c4cc(-c5cnn(C)c5)cnc4N)C3)cc2O)s1 [Example 535, (R)-2-amino-N-(1-(3-hydroxy-4-(5-methylthiophen-2-yl)benzoyl)pyrrolidin-3-yl)-5-(1-methyl-1H-pyrazol-4-yl)nicotinamide]	100 to 1000
CC(=O)c1ccc(-c2ccc(C(=O)N3CC[C@@H](NC(=O)c4cc(-c5cnn(C)c5)cnc4N)C3)cc2)s1 [Example 538, (R)—N-(1-(4-(5-acetylthiophen-2-yl)benzoyl)pyrrolidin-3-yl)-2-amino-5-(1-methyl-1H-pyrazol-4-yl)nicotinamide]	100 to 1000
Cc1csc(-c2ccc(C(=O)N3CC[C@@H](NC(=O)c4cc(-c5cnn(C)c5)cnc4N)C3)cc2)n1 [Example 544, (R)-2-amino-5-(1-methyl-1H-pyrazol-4-yl)-N-(1-(4-(4-methylthiazol-2-yl)benzoyl)pyrrolidin-3-yl)nicotinamide]	100 to 1000
Cn1cc(-c2cnc(N)c(C(=O)N[C@@H]3CCN(C(=O)c4nc5ccccc5[nH]4)C3)c2)cn1 [Example 545, (R)—N-(1-(1H-benzo[d]imidazole-2-carbonyl)pyrrolidin-3-yl)-2-amino-5-(1-methyl-1H-pyrazol-4-yl)nicotinamide]	> 1000
CN1CCC(COc2ccc(-c3ccc(C(=O)N4CC[C@@H](NC(=O)c5cc(-c6cnn(C)c6)cnc5N)C4)cc3)cc2)CC1 [Example 552, (R)-2-amino-5-(1-methyl-1H-pyrazol-4-yl)-N-(1-(4′-((1-methylpiperidin-4-yl)methoxy)-[1,1′-biphenyl]-4-carbonyl)pyrrolidin-3-yl)nicotinamide]	100 to 1000
Cn1cc(-c2cnc(N)c(C(=O)N[C@@H]3CCN(C(=O)c4ccc(C#CCCCO)cc4)C3)c2)cn1 [Example 554, (R)-2-amino-N-(1-(4-(5-hydroxypent-1-yn-1-yl)benzoyl)pyrrolidin-3-yl)-5-(1-methyl-1H -pyrazol-4-yl)nicotinamide]	100 to 1000
CN1CCN(c2ccc(-c3cnc(N)c(C(=O)N[C@@H]4CCN(C(=O)c5ccc(-c6ccccc6)cc5)C4)c3)cc2)CC1 [Example 556, (R)—N-(1-([1,1′-biphenyl]-4-carbonyl)pyrrolidin-3-yl)-2-amino-5-(4-(4-methylpiperazin-1-yl)phenyl)nicotinamide]	10 to 100
Nc1ncc(-c2cccnc2)cc1C(=O)N[C@@H]1CCN(C(=O)c2ccc(-c3ccccc3)cc2)C1 [Example 558, (R)—N-(1-([1,1′-biphenyl]-4-carbonyl)pyrrolidin-3-yl)-6-amino-[3,3′-bipyridine]-5-carboxamide]	10 to 100
Nc1ncc(-c2ccc(F)nc2)cc1C(=O)N[C@@H]1CCN(C(=O)c2ccc(-c3ccccc3)cc2)C1 [Example 560, (R)—N-(1-([1,1′-biphenyl]-4-carbonyl)pyrrolidin-3-yl)-6-amino-6′-fluoro-[3,3′-bipyridine]-5-carboxamide]	100 to 1000
Nc1ncc(-c2cnn(C3CCNCC3)c2)cc1C(=O)N[C@@H]1CCN(C(=O)c2ccc(-c3ccccc3)cc2)C1 [Example 562, (R)—N-(1-([1,1′-biphenyl]-4-carbonyl)pyrrolidin-3-yl)-2-amino-5-(1-(piperidin-4-yl)-1H-pyrazol-4-yl)nicotinamide]	10 to 100
CN1CCC(n2cc(-c3cnc(N)c(C(=O)N[C@@H]4CCN(C(=O)c5ccc(-c6ccccc6)cc5)C4)c3)cn2)CC1 [Example 563, (R)—N-(1-([1,1′-biphenyl]-4-carbonyl)pyrrolidin-3-yl)-2-amino-5-(1-(1-methylpiperidin-4-yl)-1H-pyrazol-4-yl)nicotinamide]	10 to 100
CC(C)(C)n1cc(-c2cnc(N)c(C(=O)N[C@@H]3CCN(C(=O)c4ccc(-c5ccccc5Cl)cc4)C3)c2)cn1 [Example 577, (R)-2-amino-5-(1-(tert-butyl)-1H-pyrazol-4-yl)-N-(1-(2′-chloro-[1,1′-biphenyl]-4-carbonyl)pyrrolidin-3-yl)nicotinamide]	10 to 100
Nc1ncc(Br)cc1C(=O)N[C@@H]1CCN(C(=O)c2ccc(-c3ccc(F)cc3Cl)cc2)C1 [Example 580, (R)-2-amino-5-bromo-N-(1-(2′-chloro-4′-fluoro-[1,1′-biphenyl]-4-carbonyl)pyrrolidin-3-yl)nicotinamide]	100 to 1000
CC(=O)Nc1ccc(-c2cnc(N)c(C(=O)N[C@@H]3CCN(C(=O)c4ccc(-c5ccc(F)cc5Cl)cc4)C3)c2)cn1 [Example 582, (R)-6′-acetamido-6-amino-N-(1-(2′-chloro-4′-fluoro-[1,1′-biphenyl]-4-carbonyl)pyrrolidin-3-yl)-[3,3′-bipyridine]-5-carboxamide]	100 to 1000
CN(C(=O)c1cc(-c2cnn(C)c2)cnc1N)[C@@H]1CCN(Cc2ccccc2)C1 [Example 623, (R)-2-amino-N-(1-benzylpyrrolidin-3-yl)-N-methyl-5-(1-methyl-1H-pyrazol-4-yl)nicotinamide]	> 1000
CN(C(=O)N1CC[C@@H](NC(=O)c2cc(-c3cnn(C)c3)cnc2N)C1)c1ccccc1 [Example 625, (R)-2-amino-N-(1-(methyl(phenyl)carbamoyl)pyrrolidin-3-yl)-5-(1-methyl-1H-pyrazol-4-yl)nicotinamide]	> 1000
Nc1ncc(-c2cnn(C3CCNCC3)c2)cc1C(=O)N[C@@H]1CCN(C(CO)c2ccccc2)C1 (stereo partly drawn) [Example 629, 2-amino-N-((3R)-1-(2-hydroxy-1-phenylethyl)pyrrolidin-3-yl)-5-(1-(piperidin-4-yl)-1H-pyrazol-4-yl)nicotinamide]	> 1000

Next, values leading:

IC50 [nM]	Structure (SMILES)
> 1000	Cc1onc(N)c1-c1ccc(C(=O)N2CC[C@@H](NC(=O)c3cc(-c4cnn(C)c4)cnc3N)C2)cc1 [Example 540, (R)-2-amino-N-(1-(4-(3-amino-5-methylisoxazol-4-yl)benzoyl)pyrrolidin-3-yl)-5-(1-methyl-1H-pyrazol-4-yl)nicotinamide]
100 to 1000	Cc1cnc(-c2ccc(C(=O)N3CC[C@@H](NC(=O)c4cc(-c5cnn(C)c5)cnc4N)C3)cc2)s1 [Example 543, (R)-2-amino-5-(1-methyl-1H-pyrazol-4-yl)-N-(1-(4-(5-methylthiazol-2-yl)benzoyl)pyrrolidin-3-yl)nicotinamide]
100 to 1000	Cn1cc(-c2cnc(N)c(C(=O)N[C@@H]3CCN(C(=O)c4ccc(-c5ccc(CN6CCC(N)CC6)cc5)cc4)C3)c2)cn1 [Example 547, (R)-2-amino-N-(1-(4′-((4-aminopiperidin-1-yl)methyl)-[1,1′-biphenyl]-4-carbonyl)pyrrolidin-3-yl)-5-(1-methyl-1H-pyrazol-4-yl)nicotinamide]
> 1000	Cn1cc(-c2cnc(N)c(C(=O)N[C@@H]3CCN(C(=O)c4ccc(C#CCCO)cc4)C3)c2)cn1 [Example 553, (R)-2-amino-N-(1-(4-(4-hydroxybut-1-yn-1-yl)benzoyl)pyrrolidin-3-yl)-5-(1-methyl-1H-pyrazol-4-yl)nicotinamide]
100 to 1000	Nc1ncc(-c2ccc(CO)cc2)cc1C(=O)N[C@@H]1CCN(C(=O)c2ccc(-c3ccccc3)cc2)C1 [Example 568, (R)—N-(1-([1,1′-biphenyl]-4-carbonyl)pyrrolidin-3-yl)-2-amino-5-(4-(hydroxymethyl)phenyl)nicotinamide]
10 to 100	COCCn1cc(-c2cnc(N)c(C(=O)N[C@@H]3CCN(C(=O)c4ccc(-c5ccccc5Cl)cc4)C3)c2)cn1 [Example 573, (R)-2-amino-N-(1-(2′-chloro-[1,1′-biphenyl]-4-carbonyl)pyrrolidin-3-yl)-5-(1-(2-methoxyethyl)-1H-pyrazol-4-yl)nicotinamide]
10 to 100	Nc1ncc(-c2ccc(S(N)(=O)=O)cc2)cc1C(=O)N[C@@H]1CCN(C(=O)c2ccc(-c3ccccc3Cl)cc2)C1 [Example 575, (R)-2-amino-N-(1-(2′-chloro-[1,1′-biphenyl]-4-carbonyl)pyrrolidin-3-yl)-5-(4-sulfamoylphenyl)nicotinamide]
100 to 1000	CS(=O)(=O)Nc1ccc(-c2cnc(N)c(C(=O)N[C@@H]3CCN(C(=O)c4ccc(-c5ccccc5Cl)cc4)C3)c2)cc1 [Example 576, (R)-2-amino-N-(1-(2′-chloro-[1,1′-biphenyl]-4-carbonyl)pyrrolidin-3-yl)-5-(4-(methylsulfonamido)phenyl)nicotinamide]
100 to 1000	Nc1ncc(-c2cncc(C(=O)O)c2)cc1C(=O)N[C@@H]1CCN(C(=O)c2ccc(-c3ccc(F)cc3Cl)cc2)C1 [Example 587, (R)-6′-amino-5′-((1-(2′-chloro-4′-fluoro-[1,1′-biphenyl]-4-carbonyl)pyrrolidin-3-yl)carbamoyl)-[3,3′-bipyridine]-5-carboxylic acid]
10 to 100	Nc1ncc(-c2ccc(C(=O)N3CCN(CCO)CC3)cc2)cc1C(=O)N[C@@H]1CCN(C(=O)c2ccc(-c3ccccc3Cl)cc2)C1 [Example 589, (R)-2-amino-N-(1-(2′-chloro-[1,1′-biphenyl]-4-carbonyl)pyrrolidin-3-yl)-5-(4-(4-(2-hydroxyethyl)piperazine-1-carbonyl)phenyl)nicotinamide]
> 1000	Nc1ncc(-c2cnn(C3CCNCC3)c2)cc1C(=O)N[C@@H]1CCN(Cc2ccnc(Cl)c2)C1 [Example 631, (R)-2-amino-N-(1-((2-chloropyridin-4-yl)methyl)pyrrolidin-3-yl)-5-(1-(piperidin-4-yl)-1H-pyrazol-4-yl)nicotinamide]
